These results are taken from patent US8008506B2, “Indazole compounds” (priority 2008, dated 2011).

Assay [1] has as its system urinary bladder smooth muscle isolated from common marmoset. The experiment in a line: Test Example 7: relaxant activity on urinary bladder smooth muscle isolated from common marmoset. Conditions: KCl 40 mmol/L contraction, papaverine 10^−4 mol/L relaxation taken as 100%. The protocol:
Common marmosets are (CLEA Japan, Inc.) exsanguinated to death, and then are subjected to laparotomy to isolate the urinary bladder therefrom. […] The strips are applied a resting tension of 1 g, and are equilibrated for at least 30 minutes. After the resting tension of the strips have been equilibrated, KCl at a final concentration of 40 mmol/L is repeatedly added to the organ bath, and it is confirmed that contraction due to KCl becomes almost constant. […] When the relaxation response at the maximum concentration of the test compound is completed, papaverine at a final concentration of 10^−4 mol/L is added, and the maximum relaxation response of each strip is determined.

Assay [2] deals with T1, human β3 adrenergic receptor (Homo sapiens, UniProt P13945).
T1 construct: the full length human β3 gene is obtained from a human genomic library; expressed in transfected cells; host or cells: CHO (Chinese Hamster Ovary) cells, pcDNA3, geneticin selection
The experiment in a line: Test Example 1-B: human β3 adrenergic receptor agonist activity (cAMP-Screen kit, transfected CHO cells, 96-well). Format: cell-based. Conditions: Table 2; maximum response to isoproterenol taken as 100%. The protocol:
(§1) Measurement of Human β3 Adrenergic Receptor Agonist Activity
The measurement of human β3 adrenergic receptor agonist activity is carried out using CHO (Chinese Hamster Ovary) cells transfected with pcDNA3 (manufactured by Invitrogen, Inc.) to which human β3 gene has been inserted. […] This human β3 cDNA fragment is used as a probe, and the full length human β3 gene is obtained from a human genomic library (manufactured by Clontech Laboratories, Inc.). The above cells are cultured in Ham's F-12 medium containing 10% fetal bovine serum and 400 μg/ml geneticin (manufactured by Invitrogen, Inc.). These cells are seeded on a 96-well plate to a concentration of 2×10^4 cells/well, and after being cultured for about 20 hours, the cells are left to stand in 80 μL of serum-free Ham's F-12 medium for 15 minutes. A test compound is initially dissolved in DMSO, and then is diluted stepwise with Ham's F-12 containing 100 mmol/L HEPES and 1 mmol/L isobutylmethylxanthine. 20 μL of the dilution is added to the cells. After the cells are cultured for 30 minutes, the medium is removed. 0.3. ml of the Assay/lysis Buffer included in cAMP-Screen kit (manufactured by Applied Biosystems, Inc.) is added to the cells, and the cells are incubated at 37° C. for 30 minutes. The resulting cell lysate is subjected to quantification of cAMP with the cAMP-Screen kit.

Assay [3] concerns the target T1, human β3 adrenergic receptor. Description: Test Example 1-A: human β3 adrenergic receptor agonist activity (cAMP EIA, transfected CHO cells, 24-well). The format is cell-based. Conditions: Table 1; maximum response to isoproterenol taken as 100%. The protocol: as §1
The measurement of human β3 adrenergic receptor agonist activity is carried out using CHO (Chinese Hamster Ovary) cells transfected with pcDNA3 (manufactured by Invitrogen, Inc.) to which human β3 gene has been inserted. […] This human β3 cDNA fragment is used as a probe, and the full length human β3 gene is obtained from a human genomic library (manufactured by Clontech Laboratories, Inc.). The above cells are cultured in Ham's F-12 medium containing 10% fetal bovine serum and 400 μg/ml geneticin (manufactured by Invitrogen, Inc.). These cells are seeded on a 24-well plate to a concentration of 1×10^5 cells/well, and after being cultured for about 20 hours, the cells are left to stand in serum-free Ham's F-12 medium for 2 hours. A test compound is initially dissolved in DMSO, and then is diluted stepwise with Ham's F-12 containing 20 mmol/L HEPES, 1 mmol/L isobutylmethylxanthine, and 1 mmol/L ascorbic acid. The dilution is added to the cells. After the cells are cultured for 30 minutes, and then the medium is removed, followed by addition of 0.1 ml of 1 N NaOH to the cells. The cells are left to stand for 20 minutes, and then are added with 0.1 ml of 1 N acetic acid and are stirred. The resulting cell lysate is centrifuged, and then is subjected to quantification of cAMP with cAMP EIA kit (manufactured by Cayman Chemical Co.).

T1 sequence (P13945 whole entry): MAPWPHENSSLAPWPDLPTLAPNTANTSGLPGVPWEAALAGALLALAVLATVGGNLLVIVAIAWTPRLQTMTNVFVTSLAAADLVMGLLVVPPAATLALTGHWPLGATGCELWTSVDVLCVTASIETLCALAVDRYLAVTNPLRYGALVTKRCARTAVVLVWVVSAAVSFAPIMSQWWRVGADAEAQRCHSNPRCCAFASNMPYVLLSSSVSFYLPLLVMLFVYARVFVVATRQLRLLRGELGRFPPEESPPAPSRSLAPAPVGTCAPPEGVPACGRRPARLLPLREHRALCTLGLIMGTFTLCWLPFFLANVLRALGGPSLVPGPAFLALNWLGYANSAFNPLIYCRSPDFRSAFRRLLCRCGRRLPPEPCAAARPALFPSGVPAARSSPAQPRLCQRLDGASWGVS

With `CC(C)NCC(O)c1ccc(O)c(O)c1` (stereo not shown) [Isoproterenol, reference compound], the “relaxant activity (%) 10^−4 M” value in assay [1] (10^−4 M) was 62.8%. The “relaxant activity (%) 10^−5 M” value in assay [1] (10^−5 M) amounted to 58.0%. Also, the “β3 receptor I.A.” value in assay [2] and in assay [3] was 100% in each case.
